Test results reported in US20250049970A1, “DLL3 TARGETING PEPTIDES AND CONSTRUCTS THEREOF” (MARIANA ONCOLOGY INC., priority 2023, published 2025).
*1 amine or outer side, *2 acyl side, *3 side chain or, on linkers, in order; H or OH if unused. Where a SMILES comes first, the peptide text is derived from it. Bridges are numbered along the chain shown (N, C = ends). [ ]: non-standard residue; d: D form. The star is where a group is joined. Ala(piperidin-4-yl) = O=C([C@H](CC1CCN([*:3])CC1)N[*:1])[*:2]; DOTA = O=C(O)CN1CCN(CC(=O)O)CCN(CC(=O)*)CCN(CC(=O)O)CC1; X1 = O=CCN1CCN(CC(=O)O)CCN(CC(=O)*)CCN(CC(=O)O)CC1; 2Nal = N[C@@H](Cc1ccc2ccccc2c1)C(=O)O; Gly(4-THP) = N[C@H](C(=O)O)C1CCOCC1; aIle = CC[C@@H](C)[C@H](N)C(=O)O; tBuAla = CC(C)(C)C[C@H](N)C(=O)O; Cha = N[C@@H](CC1CCCCC1)C(=O)O; Chg = N[C@H](C(=O)O)C1CCCCC1

Assays:
[1] = test system: CT26.DLL3 cells; experiment: Cell binding (total uptake) of [177Lu]Lu-labeled peptide, CT26.DLL3 cells; assay type: cell-based; settings: 1 h, 37° C.
Description: (§1) [^177Lu]LuCl3 was received from venders in HCl solution. For every mCi of [^177Lu]LuCl3 added to the reaction vial (1.5 mL Eppendorf vial), ammonium acetate buffer (0.2 M, pH 4.9, 100 μL, containing 1% w/v ascorbic acid and 6% v/v ethanol) and peptide conjugate (1 nmol; also referred to herein as “chelator-peptides”) was added. The pH of the solution was determined to be approximately 5 by using pH strips. The reaction vial was incubated at 80° C., 700 RPM for 17-20 minutes. A sample from the reaction was analyzed by RP-HPLC using an Agilent Infinity II 1260 HPLC to determine reaction completion and radiochemical purity of [^177Lu]Lu-chelator-peptides. HPLC conditions: Waters XBridge BEH C18 Column, 130A, 3.5 μm, 4.6 mm×250 mm; mobile phase: Solvent A=water (with 0.1% formic acid), solvent B=acetonitrile (with 0.1% formic acid). Gradients: 25-45% B in 10 minutes, 45-65% B in 12 minutes, 65-90% in 6 minutes at a flow rate of 0.5 mL/minutes Required amounts of the product was formulated in 1% PBSA for cell studies.
(§2) The study was conducted using SHP-77, CT26.WT, CT26.DLL3, and HEK293.DLL3 cells (Table 9)
(§3) Adherent cell studies: The cells were cultured in appropriate culture media (20 mL) in tissue culture treated T150 flasks at 37° C. and 5% C02. Adherent cells were detached (60-70% confluent) using 5 mL Versene at 37° C. for 3 minutes. After confirming the viability using countess and count of detached cells using Trypan blue, the cells were centrifuged at 4° C. for 5 minutes (1,000 rpm). The cell pellet obtained was washed once with PBS and resuspended in 1% PBSA to obtain the desired cell concentration (5-25 million cells/mL).
(§4) Cell numbers used for the assay were in the range of 5 million cells/condition-25 million cells/condition.
(§5) Total uptake: Cells were incubated with 300 μL (0.8 μCi) of the incubation buffer (containing radiolabeled peptide [^177Lu]Lu-test peptide) for 1 hour at 37° C. (Table 10). Post incubation, the cells were pelleted and washed 2 times using cold PBS+1% BSA. The supernatant and washes were combined and counted together as “unbound fraction” in a gamma counter. The cells were then resuspended in 300 μL of 1% PBS+1% BSA and counted in the gamma counter as “bound fraction”.
(§6) In these Tables, “A” represents % s ≤25; “B” represents 25 <% ≤50; “C” represents % >50.

[2] = test system: CT26.DLL3 cells; experiment: Internalization of [177Lu]Lu-labeled peptide, CT26.DLL3 cells; assay type: cell-based; settings: 1 h, 37° C.
Description: as §1, §2, §3, §4
(§7) Internalization: The resuspended cells in 300 μL of 1% PBSA and counted in the gamma counter as “bound fraction” were collected in 1.5 mL Eppendorf tube and pelleted. The pelleted cells were incubated with 300 μL of 50 mM Glycine pH=2.5 for 3 minutes and then pelleted discarding the supernatant. This process was repeated one more time. The pelleted cells were washed with 300 μL of cold 1% PBSA and then resuspended in 300 μl 0.3M NaOH. This was counted in the gamma counter as “internalized fraction”.
as §6

[3] = test system: SHP-77 cells; experiment: Cell binding (total uptake) of [177Lu]Lu-labeled peptide, SHP-77 cells; assay type: cell-based; settings: 1 h, 37° C.
Description: as §1, §2, §3
as §3, with “Suspension” for “Adherent”, “CO2.” for “C02. Adherent cells were detached (60-70% confluent) using 5 mL Versene at 37° C. for 3 minutes.”, “viability” for “viability using countess”
as §4, §5, §6

[4] = target: T1, DLL3 (Homo sapiens, UniProt Q9NYJ7); experiment: SPR KD, biotinylated human DLL3 on streptavidin chip (Table 8); parameters: biotin (biotinylated); settings: biotinylated human DLL3 on streptavidin sensor chip, 25° C., 1:1 binding model; read-out: SPR KD
T1 sequence (Q9NYJ7 27-618): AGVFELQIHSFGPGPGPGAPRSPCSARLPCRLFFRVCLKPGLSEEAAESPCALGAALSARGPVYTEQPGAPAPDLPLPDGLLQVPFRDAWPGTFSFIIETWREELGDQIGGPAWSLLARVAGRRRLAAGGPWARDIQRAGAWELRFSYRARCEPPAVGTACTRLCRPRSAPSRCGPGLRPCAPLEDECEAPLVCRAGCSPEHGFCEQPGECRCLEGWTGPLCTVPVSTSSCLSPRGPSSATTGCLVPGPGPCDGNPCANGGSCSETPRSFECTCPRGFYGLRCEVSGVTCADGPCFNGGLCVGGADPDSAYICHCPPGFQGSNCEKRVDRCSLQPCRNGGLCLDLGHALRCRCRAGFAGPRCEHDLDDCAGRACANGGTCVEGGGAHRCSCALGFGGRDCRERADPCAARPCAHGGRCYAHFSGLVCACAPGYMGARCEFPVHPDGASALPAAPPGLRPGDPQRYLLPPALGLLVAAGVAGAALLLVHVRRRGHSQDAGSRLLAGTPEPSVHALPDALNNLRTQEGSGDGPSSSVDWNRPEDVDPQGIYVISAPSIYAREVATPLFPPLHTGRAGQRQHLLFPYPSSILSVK
Source text: Biotinylated target ligand human DLL3 was immobilized on a streptavidin sensor chip. A reference surface was set up for nonspecific binding and refractive index changes. […] Sensorgram curves were fitted with 1:1 binding model, and affinity and kinetic parameters were obtained using Biacore Insight evaluation 4.0. software.

[5] = test system: nude mice bearing SHP-77 tumors; experiment: Ex vivo biodistribution of radiolabeled peptides (% IA/g) in nude mice bearing SHP-77 tumors; settings: [177Lu]Lu labelling, 24 hours post-injection, intravenous
Procedure, shortened: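 [177Lu]Lu-peptides were given as an IV tail-vein bolus once tumors reached 200-400 mm^3. Injected activity was set per mouse from syringe dose-calibrator readings. At set time points, tissues were weighed and gamma-counted, and counts were decay-corrected to injection and expressed as % IA/g.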

[6] = test system: SHP-77 cells; experiment: Internalization of [177Lu]Lu-labeled peptide, SHP-77 cells; assay type: cell-based; settings: 1 h, 37° C.
Description: as §1, §2, §3
as §3, with “Suspension” for “Adherent”, “CO2.” for “C02. Adherent cells were detached (60-70% confluent) using 5 mL Versene at 37° C. for 3 minutes.”, “viability” for “viability using countess”
as §4, §7, §6

Kd [4] [nM] | kidney uptake (% IA/g) [5] | SMILES | % Binding [1] | % Internalization (out of bound fraction) [2] | % Binding [3] | tumor uptake (% IA/g) [5] | % Internalization (out of bound fraction) [6]
< 1 | D (“D” represents % IA/g > 10 in kidney) | CC(=O)N[C@@H](Cc1c[nH]c2ccccc12)C(=O)N[C@H](C(=O)N[C@@H](CC1CCCCC1)C(=O)N[C@H]1CSSC[C@@H](C(=O)N[C@@H](Cc2c[nH]c3ccccc23)C(=O)N2CCC[C@H]2C(N)=O)NC(=O)[C@H](CC(=O)O)NC(=O)[C@H](CCCCNC(=O)CN2CCN(CC(=O)O)CCN(CC(=O)O)CCN(CC(=O)O)CC2)NC(=O)[C@H](Cc2ccc3ccccc3c2)NC(=O)[C@H](CC(N)=O)NC(=O)[C@H](CC(N)=O)NC1=O)[C@@H](C)O [compound 323, Ac-W-T-(CHA)-C(3)-N-N-(2Nal)-Lys(DOTA)-D-C(3)-W-P-CONH2] (Ac-WT[Cha]CNN[2Nal]K(DOTA)DCWP-NH2; disulfide 4-10) | A (% s ≤25) | C (% >50) | A (% s ≤25) | A (“A” represents 0 < % IA/g ≤ 5 in tumor) | B (25 <% ≤50)
< 1 | D (“D” represents % IA/g > 10 in kidney) | CC(=O)N[C@@H](Cc1c[nH]c2ccccc12)C(=O)N[C@H](C(=O)N[C@H](C(=O)N[C@H]1CSSC[C@@H](C(=O)N[C@@H](Cc2c[nH]c3ccccc23)C(=O)N2CCC[C@H]2C(N)=O)NC(=O)[C@H](CC(=O)O)NC(=O)[C@H](CCCCNC(=O)CN2CCN(CC(=O)O)CCN(CC(=O)O)CCN(CC(=O)O)CC2)NC(=O)[C@H](Cc2ccc3ccccc3c2)NC(=O)[C@H](CC(N)=O)NC(=O)[C@H](CC(N)=O)NC1=O)C1CCCCC1)[C@@H](C)O [compound 318, Ac-W-T-(Chg)-C(3)-N-N-(2Nal)-Lys(DOTA)-D-C(3)-W-P-CONH2] (Ac-WT[Chg]CNN[2Nal]K(DOTA)DCWP-NH2; disulfide 4-10) | A (% s ≤25) | C (% >50) | B (25 <% ≤50) | A (“A” represents 0 < % IA/g ≤ 5 in tumor) | C (% >50)
< 1 | D (“D” represents % IA/g > 10 in kidney) | CC[C@@H](C)[C@H](NC(=O)[C@@H](NC(=O)[C@H](Cc1c[nH]c2ccccc12)NC(C)=O)[C@@H](C)O)C(=O)N[C@H]1CSSC[C@@H](C(=O)N[C@@H](Cc2c[nH]c3ccccc23)C(=O)N2CCC[C@H]2C(N)=O)NC(=O)[C@H](CC(=O)O)NC(=O)[C@H](CCCCNC(=O)CN2CCN(CC(=O)O)CCN(CC(=O)O)CCN(CC(=O)O)CC2)NC(=O)[C@H](Cc2ccc3ccccc3c2)NC(=O)[C@H](CC(N)=O)NC(=O)[C@H](CC(N)=O)NC1=O [compound 322, Ac-W-T-(Allo-Ile)-C(3)-N-N-(2Nal)-Lys(DOTA)-D-C(3)-W-P-CONH2] (Ac-WT[aIle]CNN[2Nal]K(DOTA)DCWP-NH2; disulfide 4-10) | A (% s ≤25) | C (% >50) | A (% s ≤25) | A (“A” represents 0 < % IA/g ≤ 5 in tumor) | B (25 <% ≤50)

Second part, the compound before the results:

SMILES | Kd [4] [nM] | kidney uptake (% IA/g) [5] | % Binding [1] | % Internalization (out of bound fraction) [2] | % Binding [3] | tumor uptake (% IA/g) [5] | % Internalization (out of bound fraction) [6]
CC(=O)N[C@@H](Cc1c[nH]c2ccccc12)C(=O)N[C@H](C(=O)N[C@@H](CC(C)(C)C)C(=O)N[C@H]1CSSC[C@@H](C(=O)N[C@@H](Cc2c[nH]c3ccccc23)C(=O)N2CCC[C@H]2C(N)=O)NC(=O)[C@H](CC(=O)O)NC(=O)[C@H](CCCCNC(=O)CN2CCN(CC(=O)O)CCN(CC(=O)O)CCN(CC(=O)O)CC2)NC(=O)[C@H](Cc2ccc3ccccc3c2)NC(=O)[C@H](CC(N)=O)NC(=O)[C@H](CC2CCNCC2)NC1=O)[C@@H](C)O [compound 314, Ac-W-T-(t-Bu-Ala)-C(3)-[3-(4-piperidinyl)-Ala]-N-(2Nal)-Lys(DOTA)-D-C(3)-W-P-CONH2] (Ac-WT[tBuAla]C[Ala(piperidin-4-yl)]N[2Nal]K(DOTA)DCWP-NH2; disulfide 4-10) | < 1 | C (“C” represents 0 < % IA/g ≤ 10 in) | B (25 <% ≤50) | B (25 <% ≤50) | B (25 <% ≤50) | A (“A” represents 0 < % IA/g ≤ 5 in tumor) | B (25 <% ≤50)
CC(=O)N[C@@H](Cc1c[nH]c2ccccc12)C(=O)N[C@H](C(=O)N[C@@H](CC(C)(C)C)C(=O)N[C@H]1CSSC[C@@H](C(=O)N[C@@H](Cc2c[nH]c3ccccc23)C(=O)N2CCC[C@H]2C(N)=O)NC(=O)[C@H](CC(=O)O)NC(=O)[C@H](CCCCNC(=O)CN2CCN(CC(=O)O)CCN(CC=O)CCN(CC(=O)O)CC2)NC(=O)[C@H](Cc2ccc3ccccc3c2)NC(=O)[C@H](CC(N)=O)NC(=O)[C@H](CC(N)=O)NC1=O)[C@@H](C)O [compound 316, Ac-W-T-(t-Bu-Ala)-C(3)-N-N-(2Nal)-Lys(DOTA)-D-C(3)-W-P-CONH2] (Ac-WT[tBuAla]CNN[2Nal]K(X1)DCWP-NH2; disulfide 4-10) | < 1 | D (“D” represents % IA/g > 10 in kidney) | A (% s ≤25) | B (25 <% ≤50) | B (25 <% ≤50) | A (“A” represents 0 < % IA/g ≤ 5 in tumor) | C (% >50)
CC(=O)N[C@@H](Cc1c[nH]c2ccccc12)C(=O)N[C@H](C(=O)N[C@H](C(=O)N[C@H]1CSSC[C@@H](C(=O)N[C@@H](Cc2c[nH]c3ccccc23)C(=O)N2CCC[C@H]2C(N)=O)NC(=O)[C@H](CC(=O)O)NC(=O)[C@H](CCCCNC(=O)CN2CCN(CC(=O)O)CCN(CC(=O)O)CCN(CC(=O)O)CC2)NC(=O)[C@H](Cc2ccc3ccccc3c2)NC(=O)[C@H](CC(N)=O)NC(=O)[C@H](CC(N)=O)NC1=O)C1CCOCC1)[C@@H](C)O [compound 317, Ac-W-T-(THPG)-C(3)-N-N-(2Nal)-Lys(DOTA)-D-C(3)-W-P-CONH2] (Ac-WT[Gly(4-THP)]CNN[2Nal]K(DOTA)DCWP-NH2; disulfide 4-10) | < 1 | D (“D” represents % IA/g > 10 in kidney) | A (% s ≤25) | C (% >50) | A (% s ≤25) | A (“A” represents 0 < % IA/g ≤ 5 in tumor) | B (25 <% ≤50)
